Assay results as given in patent US12396996B2, “Compounds, pharmaceutical compositions, and methods of their use in reversing cancer chemoresistance” (priority 2019, dated 2025).

What follows are compounds tested on HMLE-SNAIL spheroids (assay: 3-D tumor spheroid assay (Sytox/DAPI staining)). Conditions: Sytox staining.
Format: cell-based, human
Description: FIGS. 1F-1I show the results of a 3-D tumor spheroid assay formed by the chemotherapy-resistant breast cancer cell line, HMLE-SNAIL. […] Tumor spheroids are a model of real in vivo tumors, as they form a 3-D cell mass in which the hypoxic and often nutrient depleted microenvironment at the center of the tumor is enriched with mesenchymal, chemotherapy-resistant TIC cells. […] By staining spheroids with Sytox, which stains dead cells green, and DAPI, which stains the nuclei of all cells (living or dead), total fraction of dead cells is calculated. Also, the location of dead cells within the sphere is visualized with Sytox (green) staining. The results of FIGS. 1F-1I indicate that chaetocin a selective and potent killer of inner cells of the spheroids, enriched with mesenchymal, chemotherapy-resistant TIC cells, compared to other compounds tested. FIGS. 1J-1K show the results of a tumorsphere assay performed with TICs grown on serum-free, non-adherent culture conditions. […] The results of FIGS. 1J-1K indicate that chaetocin is effective in eliminating TICs in a dose dependent-manner.
To determine whether chaetocin affects TIC death in a tumor-like environment, 3-D tumor spheroid assays were performed in the presence or absence of chaetocin. Tumor spheroids are a model of a real tumor, as they form a 3-D cell mass similar to tumors in vivo. The local microenvironment of a spheroid recapitulates many of the in vivo properties of tumor. Importantly, the hypoxic and often nutrient depleted microenvironment at the center of the tumor is favorable for converting epithelial, non-TIC, chemotherapy-sensitive cancer cells into mesenchymal, TIC-rich, chemotherapy-resistant cells. […] Pharmacological agents were added and cell viability was calculated by staining cells with Sytox, which stains dead cells green, and DAPI, which stains the nuclei of all cells (living or dead). to provide the total cell number. Using this method, the total fraction of dead cells was calculated and compared between different drug conditions. More importantly, the location of dead cells within the sphere is visualized with Sytox (green) staining. FIGS. 1G-1I show fluorescence images of tumor spheroids under control conditions (no treatment; FIG. 1G), under treatment with various experimental chemotherapeutic agents (Y-27632, LY-450139, and IWP-L6 (Wnt); FIG. 1H), and with chaetocin treatment (FIG. 1I). […] This family of kinases are thought to be important for survival of TIC cells. IWP-L6 is an inhibitor of Wnt pathway—a pathway important for TIC cell survival and formation. LY-450139 is a NOTCH pathway inhibitor. NOTCH is also important for TIC cell viability and survival. […]
With `O=C(CSc1nc2c(c(=O)n1-c1ccccc1)SCC2)Nc1ccc(-c2ccccc2)cn1` [IWP-L6] the “location of dead cells within spheroid” value was “mostly result in death of cells on the exterior of the spheroid”. For `CC(C)[C@H](O)C(=O)N[C@@H](C)C(=O)N[C@@H]1C(=O)N(C)CCc2ccccc21` [LY-450139], the “location of dead cells within spheroid” value was “mostly result in death of cells on the exterior of the spheroid”. With `C[C@@H](N)[C@H]1CC[C@H](C(=O)Nc2ccncc2)CC1` [Y-27632] the “location of dead cells within spheroid” value was “mostly result in death of cells on the exterior of the spheroid”.
